Data taken from ChEMBL document CHEMBL1201862, “PubChem BioAssay data set” (2004).
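Briefly, cells in 96-well plates were exposed to five compound concentrations for 48 h, and endpoints were estimated by linear interpolation. The concentration for 50% growth inhibition is given as GI50.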 Activity calls are given as the source filed them. Cut-off read from the data, not from the text of the source: active = GI50 up to about 1.1 µM and inactive = higher.

Experiments:
Assay in all cases: NCI anticancer screen, dose series, 48 h
786-0 = test system: 786-0
A549 = test system: A549
ACHN = test system: ACHN
CCRF-CEM = test system: CCRF-CEM
DLD-1 = test system: DLD-1
DMS-114 = test system: DMS-114
HCC 2998 = test system: HCC 2998
HCT-116 = test system: HCT-116
HCT-15 = test system: HCT-15
HL-60 = test system: HL-60
HOP-18 = test system: HOP-18
HT-29 = test system: HT-29
K562 = test system: K562
KM12 = test system: KM12
LOX IMVI = test system: LOX IMVI
LXFL 529 = test system: LXFL 529
M14 = test system: M14
M19-MEL = test system: M19-MEL
MOLT-4 = test system: MOLT-4
Malme-3M = test system: Malme-3M
NCI-H226 = test system: NCI-H226
NCI-H460 = test system: NCI-H460
NCI-H522 = test system: NCI-H522
OVCAR-3 = test system: OVCAR-3
OVCAR-4 = test system: OVCAR-4
OVCAR-8 = test system: OVCAR-8
RXF 393 = test system: RXF 393
SF-268 = test system: SF-268
SF-295 = test system: SF-295
SF-539 = test system: SF-539
SK-MEL-28 = test system: SK-MEL-28
SK-MEL-2 = test system: SK-MEL-2
SK-MEL-5 = test system: SK-MEL-5
SK-OV-3 = test system: SK-OV-3
SN12C = test system: SN12C
SNB-19 = test system: SNB-19
SNB-75 = test system: SNB-75
SNB-78 = test system: SNB-78
TK-10 = test system: TK-10
U-251 = test system: U-251
UACC-257 = test system: UACC-257
UACC-62 = test system: UACC-62
UO-31 = test system: UO-31
XF498 = test system: XF498
CAKI-1 = test system: CAKI-1
COLO 205 = test system: COLO 205
DMS-273 = test system: DMS-273
HOP-62 = test system: HOP-62
HOP-92 = test system: HOP-92
IGROV-1 = test system: IGROV-1
NCI-H23 = test system: NCI-H23
OVCAR-5 = test system: OVCAR-5
SR = test system: SR
SW-620 = test system: SW-620
A498 = test system: A498
EKVX = test system: EKVX
KM-20L2 = test system: KM-20L2
RPMI-8226 = test system: RPMI-8226

Measured: GI50

O=C(NN1C(=O)C(Cl)C1c1ccccc1Cl)c1ccccc1O (stereo unspecified)
inactive: 786-0 > 100 µM | A549 > 100 µM | ACHN > 100 µM | CCRF-CEM > 100 µM | DLD-1 > 100 µM | DMS-114 70 µM | HCC 2998 > 100 µM | HCT-116 > 100 µM | HL-60 > 100 µM | HOP-18 > 100 µM | HT-29 > 100 µM | K562 > 100 µM | KM12 > 100 µM | LOX IMVI > 100 µM | LXFL 529 > 100 µM | M14 > 100 µM | M19-MEL > 100 µM | MOLT-4 > 100 µM | Malme-3M > 100 µM | NCI-H226 > 100 µM | NCI-H460 > 100 µM | NCI-H522 > 100 µM | OVCAR-3 > 100 µM | OVCAR-4 > 100 µM | OVCAR-8 > 100 µM | RXF 393 15.9 µM | SF-268 71.1 µM | SF-295 > 100 µM | SF-539 > 100 µM | SK-MEL-28 > 100 µM | SK-MEL-2 > 100 µM | SK-MEL-5 > 100 µM | SK-OV-3 > 100 µM | SN12C > 100 µM | SNB-19 > 100 µM | SNB-75 > 100 µM | SNB-78 > 100 µM | TK-10 > 100 µM | U-251 > 100 µM | UACC-257 > 100 µM | UACC-62 > 100 µM | UO-31 > 100 µM | XF498 32.7 µM
> 100 µM: HCT-15

N#CC(C#N)=C(N)/C(C#N)=C\c1ccnc2ccccc12
inactive: 786-0 18.9 µM | A549 > 100 µM | ACHN 40.6 µM | CAKI-1 23.6 µM | CCRF-CEM 3.21 µM | COLO 205 > 100 µM | DLD-1 5.71 µM | DMS-114 16.8 µM | DMS-273 17.3 µM | HCC 2998 37 µM | HL-60 2.01 µM | HOP-18 > 100 µM | HOP-62 23.9 µM | HOP-92 23 µM | HT-29 24.8 µM | IGROV-1 22.1 µM | K562 4.24 µM | KM12 25.7 µM | LXFL 529 17.2 µM | M14 23 µM | M19-MEL 19 µM | MOLT-4 15.8 µM | Malme-3M 24.8 µM | NCI-H23 19.9 µM | NCI-H460 39.3 µM | NCI-H522 30 µM | OVCAR-3 31.3 µM | OVCAR-4 72.6 µM | OVCAR-5 > 100 µM | OVCAR-8 17.3 µM | RXF 393 18.6 µM | SF-268 18.5 µM | SF-295 28.2 µM | SF-539 15.1 µM | SK-MEL-28 20.2 µM | SK-MEL-5 14.6 µM | SN12C 18.8 µM | SNB-19 31.8 µM | SNB-75 31.4 µM | SNB-78 27.1 µM | SR 16.4 µM | SW-620 3.49 µM | TK-10 35.2 µM | U-251 20 µM | UACC-257 24.3 µM | UACC-62 18.9 µM | UO-31 18.2 µM | XF498 30.1 µM
active: HCT-116 0.962 µM

COc1cc(-c2cc(=O)c3ccccc3o2)ccc1N
27 µM: HCT-15
inactive: 786-0 > 100 µM | A498 27.2 µM | A549 52.1 µM | ACHN 47.3 µM | CAKI-1 11.7 µM | CCRF-CEM 40.6 µM | COLO 205 69.3 µM | DMS-114 63.5 µM | DMS-273 50.2 µM | EKVX 12.8 µM | HCC 2998 > 100 µM | HCT-116 54.3 µM | HL-60 16.6 µM | HOP-18 27.5 µM | HOP-62 41 µM | HOP-92 33.8 µM | HT-29 52.8 µM | IGROV-1 > 100 µM | K562 60.8 µM | KM-20L2 49.5 µM | KM12 39.3 µM | LOX IMVI 51.1 µM | LXFL 529 > 100 µM | M14 > 100 µM | M19-MEL > 100 µM | MOLT-4 25.5 µM | Malme-3M > 100 µM | NCI-H226 15.2 µM | NCI-H23 33.8 µM | NCI-H460 37.2 µM | NCI-H522 20.5 µM | OVCAR-3 62.8 µM | OVCAR-4 54.5 µM | OVCAR-5 84.7 µM | OVCAR-8 51.9 µM | RPMI-8226 45.5 µM | RXF 393 41 µM | SF-268 26.8 µM | SF-295 46.7 µM | SF-539 30.8 µM | SK-MEL-28 > 100 µM | SK-MEL-2 > 100 µM | SK-MEL-5 41.1 µM | SK-OV-3 > 100 µM | SN12C 65.8 µM | SNB-19 43.4 µM | SNB-75 19.7 µM | SNB-78 > 100 µM | SW-620 92.7 µM | TK-10 > 100 µM | U-251 > 100 µM | UACC-257 > 100 µM | UACC-62 79.8 µM | UO-31 18.1 µM | XF498 24 µM

CN(C)c1nc(N(C)C)nc(N(C)CN(C)c2ccccc2)n1
inactive: A549 > 100 µM | ACHN > 100 µM | CCRF-CEM > 100 µM | DMS-114 63.5 µM | HCC 2998 64.4 µM | HCT-116 > 100 µM | HL-60 > 100 µM | HOP-18 > 100 µM | HT-29 > 100 µM | IGROV-1 > 100 µM | K562 > 100 µM | KM12 > 100 µM | LOX IMVI > 100 µM | LXFL 529 > 100 µM | M19-MEL > 100 µM | MOLT-4 > 100 µM | Malme-3M > 100 µM | NCI-H226 > 100 µM | NCI-H23 > 100 µM | NCI-H460 > 100 µM | NCI-H522 > 100 µM | OVCAR-3 > 100 µM | OVCAR-4 > 100 µM | OVCAR-8 > 100 µM | RXF 393 > 100 µM | SF-268 > 100 µM | SF-295 > 100 µM | SF-539 > 100 µM | SK-MEL-28 > 100 µM | SK-MEL-2 > 100 µM | SK-MEL-5 88.7 µM | SK-OV-3 > 100 µM | SN12C > 100 µM | SNB-19 > 100 µM | SNB-75 > 100 µM | SNB-78 > 100 µM | TK-10 > 100 µM | U-251 > 100 µM | UACC-257 > 100 µM | UACC-62 > 100 µM | UO-31 > 100 µM | XF498 > 100 µM
> 100 µM: HCT-15

CSc1nc2nccnc2c(=O)[nH]1
> 100 µM: HCT-15
inactive: 786-0 > 100 µM | A498 > 100 µM | A549 > 100 µM | ACHN > 100 µM | CAKI-1 > 100 µM | CCRF-CEM > 100 µM | COLO 205 > 100 µM | DLD-1 > 100 µM | DMS-114 > 100 µM | DMS-273 > 100 µM | EKVX > 100 µM | HCC 2998 > 100 µM | HCT-116 > 100 µM | HL-60 > 100 µM | HOP-18 > 100 µM | HOP-62 > 100 µM | HOP-92 96.2 µM | HT-29 > 100 µM | IGROV-1 > 100 µM | K562 > 100 µM | KM-20L2 > 100 µM | LOX IMVI > 100 µM | LXFL 529 > 100 µM | M14 > 100 µM | M19-MEL > 100 µM | MOLT-4 > 100 µM | Malme-3M > 100 µM | NCI-H226 > 100 µM | NCI-H23 > 100 µM | NCI-H460 > 100 µM | NCI-H522 > 100 µM | OVCAR-4 > 100 µM | OVCAR-5 > 100 µM | OVCAR-8 > 100 µM | RPMI-8226 > 100 µM | RXF 393 > 100 µM | SF-268 > 100 µM | SF-295 > 100 µM | SK-MEL-28 > 100 µM | SK-MEL-2 > 100 µM | SK-MEL-5 > 100 µM | SK-OV-3 > 100 µM | SN12C > 100 µM | SNB-19 > 100 µM | SNB-75 > 100 µM | SR > 100 µM | SW-620 > 100 µM | TK-10 > 100 µM | U-251 > 100 µM | UACC-257 > 100 µM | UACC-62 > 100 µM | UO-31 > 100 µM | XF498 > 100 µM
